Measured values as given in US12653827B2, “Methods of treating indolent systemic mastocytosis” (Telios Pharma Inc., priority 2024, dated 2026).
Where “and” joins values, the source holds several entries; their conditions need not be identical. Equal entries are not always repeated. Where two headings read alike, the source gives them in different places.

Tests used:
[1] = molecular target: T1, BTK (Homo sapiens, UniProt Q06187); assay: BTK phosphorylation in mast cells (FIG. 19); assay type: cell-based; parameters: endogenous in cells
[2] = test system: human mast cells; assay: ISM-like mast cell chemotaxis towards conditioned media (Transwell); assay type: cell-based; conditions: ISM-like conditions, four healthy donors, treated two hours
Experimental: Human mast cells were differentiated from bone marrow CD34+ cells from four healthy donors as set forth in Example 4. Cells were used to produce conditioned media in ISM-like conditions. Conditioned media was the supernatant collected from mast cells cultured with stem cell factor (100 ng/mL), sensitized with NP-IgE (0.1 μg/mL) for 18 hours, treated with Compound 128 for two hours, and stimulated with NP-BSA (antigen; 0.1 μg/mL) for four hours. Migration of mast cells in the top chamber on Transwell […] inserts (Corning) towards the antigen-stimulated conditioned media in the bottom chamber was quantified after four hours using the CellTiter-Glo™ Luminescent Cell Viability Assay Kit (Promega). The amount of luminescence is correlated with live cell numbers. Fold change over the non-activated control was calculated.

[3] = test system: basophils; assay: Basophil Activation Test (BAT), CD63, anti-FcεR stimulated blood from healthy donors; assay type: cell-based, human; conditions: for EC50: Homo sapiens
Experimental: The BAT was conducted as set forth in Santos (2021) Allergy, 76:2420-2432. Blood from six healthy donors was drawn and Compound 128 was added at various concentrations (10 μM, 3.16 μM, 1 μM, 0.3 μM, 0.1 μM, 0.03 μM, or 0 μM). Blood samples were gently rocked at room temperature for 2 hours, 24 hours, or 48 hours. The BAT assay using the Flow Cast Basophil Activation Kit (Buhlmann Diagnostics; Catalog #B-CCR-STCON) was then conducted following manufacturer instructions by (1) stimulating the blood with anti-FcεR stimulation control in stimulation buffer with IL-3 and staining cells for CCR3 and CD63 for 15 minutes at 37° C., (2) lysing red blood cells and fixing cells with Lysing Reagent at room temperature for 10 minutes, (3) washing cells with Wash Buffer, and (4) acquiring data on a flow cytometer. Activated basophils were defined as CCR3+, low side scatter and CD63+. Percent of activated basophils was calculated as number of activated basophils over the total number of basophils. A four-parameter logistic regression was applied to determine the EC50 and EC90.

[4] = Clinical study in ISM patients, total symptom score (ISM-TSAF, SISM-TSAF); assay type: in vivo, human; conditions: 100 mg or 150 mg BID
Experimental: Efficacy of Compound 128 will be evaluated among adult subjects diagnosed with ISM as defined by WHO diagnostic criteria. The subjects have moderate-to-severe symptoms based on minimum mean total symptom scores (TSS) of ISM-TSAF over the 14-day eligibility screening period for assessment of TSS of ISM-TSAF. Minimum baseline TSS of ISM-TSAF for eligibility is >28. Subjects will receive either 50, 75, 100 or 150 mg BID of Compound 128 plus best supportive care. Subject will be treated for twenty-four weeks and will be evaluated at twelve weeks and twenty-four weeks. Evaluation will be based on the 14-day rolling average TSS of ISM-TSAF or SISM-TSAF. The TSS of ISM-TSAF is based on patient reporting on eleven separate symptoms, measuring the severity of a broad range of mastocytosis-related symptoms over the prior 24 hours, based on a score from zero (no symptoms) to ten (worst possible symptoms experienced) scale for a TSS between 0-110. The eleven symptoms to be scored by the subject are fatigue, abdominal pain, diarrhea, skin spots, itching, flushing, brain fog, headache, dizziness and bone pain. The TSS of SISM-TSAF is based on patient reporting on nine separate symptoms based on a score from zero (no symptoms) to ten (worst possible symptoms experienced). The nine symptoms to be scored by the subject are muscle pain, runny nose, nasal congestion, wheezing, shortness of breath, throat itching, heart palpitations, difficulty concentrating, and diarrhea. The first eight items measure the severity of a broad range of mastocytosis-related symptoms over the prior 24 hours. Each of the first eight symptom is assessed on a 0 (None) to 10 (Worst Imaginable) scale for a TSS between 0-80. The 9th item measures incidence of diarrhea over the prior 24 hours. Endpoints will also be based on mean change in TSS of ISM-TSAF or SISM-TSAF based on 14-day average of patient-reported severity of ISM symptoms; mean change in serum tryptase level, KIT D816V VAF, change in best supportive care medications and change in number of anaphylactic episodes.
Five ISM patients have been treated with Compound 128 at 100 mg or 150 mg BID. At week 12, the TSS of ISM-TSAF is reduced by 28 points compared to the placebo group (FIG. 24), and the TSS of SISM-TSAF is reduced by 22.7 points, compared to the placebo (FIG. 25). In contrast, avapritinib 25 mg QD reduced the TSS of ISM-TSAF by 5.7 points at week 24 (FIG. 23). The average reduction of total symptom score of ISM-TSAF is 55% compared to the baseline while the average reduction of total symptom score of ISM-TSAF is 38% compared to the placebo group (FIG. 28).

[5] = molecular target: T1, BTK; assay: MRGPRX2-induced BTK phosphorylation in ISM-like mast cells; assay type: cell-based; parameters: endogenous in cells; host or cells: Primary human mast cells differentiated from bone marrow CD34+ cells of healthy donors, cultured with SCF; conditions: 0.1 μM; C48/80 stimulation
Experimental: Human mast cells were differentiated from bone marrow CD34+ cells from four healthy donors and were cultured in the presence of SCF (100 ng/mL) to mimic mast cells in ISM and treated with Compound 128 for two hours prior to stimulation. Mas-related G protein-coupled receptor (MRGPRX2) agonists, Compound 48/80 (C48/80; a product of N-methyl-p-methoxyphenethylamine with formaldehyde) or Substance P (SP) were used to activate the MRGPRX2 pathway. For pBTK test, cells were stimulated with C48/80 (10 μg/mL) for ten minutes at 37° C. and cells were stained. The median fluorescence intensity of phosphorylated BTK was measured. The fold change over unstimulated control for pBTK was calculated. For cytokine test, cells were stimulated with C48/80 (10 μg/mL) or SP (30 μM) for four hours at 37° C. Supernatant was collected and cytokine levels were measured using the BD Cytometric Bead Array (CBA) human soluble protein master buffer kit (Becton Dickinson) and BD CBA human soluble protein flex sets for IL-8, MCP-1, GM-CSF and IL-13 (Becton Dickinson). Cytokine levels were measured and normalized to percent of control, with 0% representing the level of the unstimulated control.

T1 sequence (Q06187 whole entry): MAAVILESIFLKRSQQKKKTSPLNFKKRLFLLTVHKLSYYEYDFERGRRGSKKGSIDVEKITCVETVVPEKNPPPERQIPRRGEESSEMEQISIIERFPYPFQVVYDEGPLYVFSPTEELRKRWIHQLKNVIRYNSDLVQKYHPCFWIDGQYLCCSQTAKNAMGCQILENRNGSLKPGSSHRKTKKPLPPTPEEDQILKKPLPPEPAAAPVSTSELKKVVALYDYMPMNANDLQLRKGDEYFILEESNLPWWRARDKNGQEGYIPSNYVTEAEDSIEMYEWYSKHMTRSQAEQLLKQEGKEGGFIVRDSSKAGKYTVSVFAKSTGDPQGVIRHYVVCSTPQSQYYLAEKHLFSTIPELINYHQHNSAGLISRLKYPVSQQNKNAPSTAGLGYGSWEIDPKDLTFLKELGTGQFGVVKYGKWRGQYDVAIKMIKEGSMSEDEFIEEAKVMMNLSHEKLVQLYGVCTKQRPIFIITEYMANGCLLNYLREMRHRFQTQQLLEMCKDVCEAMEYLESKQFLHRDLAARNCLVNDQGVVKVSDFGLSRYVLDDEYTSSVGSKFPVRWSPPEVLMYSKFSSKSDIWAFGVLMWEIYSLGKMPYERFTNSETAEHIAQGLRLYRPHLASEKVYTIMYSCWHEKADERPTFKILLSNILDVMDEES

- potency in inhibiting BTK phosphorylation in mast cells [1]: high potency
- MRGPRX2-induced BTK phosphorylation [5]: inhibited
SMILES: C=CC(=O)N1CCC(F)(CNc2ncnc(N)c2-c2ccc(Oc3ccccc3)cc2)CC1 [Compound 128, 1-(4-(((6-amino-5-(4-phenoxyphenyl)pyrimidin-4-yl)amino)methyl)-4-fluoropiperidin-1-yl)prop-2-en-1-one]
- chemoattractant activity of mast cells (chemotaxis towards conditioned media) [2]: inhibited
- EC50 ([3]; 2-hour drug exposure, blood from six healthy donors, read-out: average EC50, inhibition of anti-FcεR induced basophil activation (CD63+)): 500 nM
- EC50 ([3]; 24-hour drug exposure, blood from six healthy donors, read-out: average EC50, inhibition of anti-FcεR induced basophil activation (CD63+)): 120 nM
- EC50 ([3]; 48-hour drug exposure, blood from six healthy donors, read-out: average EC50, inhibition of anti-FcεR induced basophil activation (CD63+)): 100 nM
- EC50 ([3]; 24 hours exposure, Example 2, read-out: average EC50 (n=4), CD63 normalized to DMSO control in CCR3+ basophils): 120 nM
- potency increase of basophil activation inhibition ([3]; after 24 hours drug exposure): approximately 4 fold
- average reduction of total symptom score of ISM-TSAF compared to the placebo group [4]: 38%
- average reduction of total symptom score of ISM-TSAF compared to the baseline ([4]; 12-week treatment): 55%
- reduction of TSS of ISM-TSAF compared to the placebo group ([4]; week 12): 28.0 points and 28 points
- reduction of TSS of SISM-TSAF compared to the placebo ([4]; week 12): 22.7 points
